Source: US20230077362A1 (CORTEVA AGRISCIENCE LLC, priority 2019, published 2023)

Key:
[1] = test system: Cabbage Looper (Trichoplusia ni) ("CL"), second instar larvae; test: Bioassay on cabbage looper (CL), 128-well diet tray assay; type: in vivo; conditions: for pest or weed control at 50 µg/cm2: Trichoplusia ni, read-out: CL rating; for CL rating: Table ABC, species CL, C = not tested, D = no activity noticed
How it was run: (§1)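 Mortality (%) is scored well by well after five to seven days at 25° C. on a 14:10 light:dark regime. The value given is the mean of eight wells.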

[2] = test system: Beet Armyworm (Spodoptera exigua) ("BAW"), second instar larvae; test: Bioassay on beet armyworm (BAW), 128-well diet tray assay; type: in vivo; conditions: for pest or weed control at 50 µg/cm2: Spodoptera exigua, read-out: BAW rating; for BAW rating: Table ABC, species BAW, C = not tested, D = no activity noticed
How it was run: as §1

| Structure (SMILES) | pest or weed control at 50 µg/cm2 [1] [%] | pest or weed control at 50 µg/cm2 [2] [%] | CL rating [1] | BAW rating [2] |
| --- | --- | --- | --- | --- |
| CC(C)c1ccc(N(C)C)cc1N1C(=O)CS/C1=N\C(=O)Nc1ccc(-n2cnc(-c3ccc(OC(F)(F)F)cc3)n2)cc1 [Compound J408, (Z)-1-(3-(5-(Dimethylamino)-2-isopropylphenyl)-4-oxothiazolidin-2-ylidene)-3-(4-(3-(4-(trifluoromethoxy)phenyl)-1H-1,2,4-triazol-1-yl)phenyl)urea] | 50 to 100 | 50 to 100 |  |  |
| CCCc1ccc(N(C)C)cc1N1C(=O)CS/C1=N\C(=O)Nc1ccc(-n2cnc(-c3ccc(OC(F)(F)F)cc3)n2)cc1 [Compound J409, (Z)-1-(3-(5-(Dimethylamino)-2-propylphenyl)-4-oxothiazolidin-2-ylidene)-3-(4-(3-(4-(trifluoromethoxy)phenyl)-1H-1,2,4-triazol-1-yl)phenyl)urea] | 50 to 100 | 50 to 100 |  |  |
| CC(C)c1cc(F)c(N(C)C)cc1N1C(=O)CS/C1=N\C(=O)Nc1ccc(-n2cnc(-c3ccc(OC(F)(F)F)cc3)n2)cc1 [Compound J410, (Z)-1-(3-(5-(Dimethylamino)-4-fluoro-2-isopropylphenyl)-4-oxothiazolidin-2-ylidene)-3-(4-(3-(4-(trifluoromethoxy)phenyl)-1H-1,2,4-triazol-1-yl)phenyl)urea] | 50 to 100 | 50 to 100 |  |  |
| CC(C)c1ccc(C#N)cc1N1C(=O)CS/C1=N\C(=O)Nc1ccc(-c2ncn(-c3ccc(S(=O)(=O)C(F)(F)F)cc3)n2)cc1C#N [Compound J413, (Z)-1-(3-(5-Cyano-2-isopropylphenyl)-4-oxothiazolidin-2-ylidene)-3-(2-cyano-4-(1-(4-((trifluoromethyl)sulfonyl)phenyl)-1H-1,2,4-triazol-3-yl)phenyl)urea] | 50 to 100 | 50 to 100 |  |  |
| CC(C)c1ccc(N(C)C)cc1N1C(=O)CS/C1=N\C(=O)Nc1ccc(-c2ncn(-c3ccc(S(=O)(=O)C(F)(F)F)cc3)n2)cc1C#N [Compound J414, (Z)-1-(2-Cyano-4-(1-(4-((trifluoromethyl)sulfonyl)phenyl)-1H-1,2,4-triazol-3-yl)phenyl)-3-(3-(5-(dimethylamino)-2-isopropylphenyl)-4-oxothiazolidin-2-ylidene)urea] | 50 to 100 | 50 to 100 |  |  |
| Cc1ccc(COCC(F)F)c(N2C(=O)CS/C2=N\C(=O)Nc2ccc(-c3ncn(-c4ccc(OC(F)(F)F)cc4)n3)cc2C)c1 [Compound J420] |  |  | A (50-100) | A (50-100) |
| CCC(OC)c1ccc(C)cc1N1C(=O)CS/C1=N\C(=O)Nc1ccc(-c2ncn(-c3ccc(OC(F)(F)F)cc3)n2)cc1F (centres unmarked) [Compound J421] | 50 to 100 | 50 to 100 |  |  |
| Cc1ccc(COCC(F)(F)F)c(N2C(=O)CS/C2=N\C(=O)Nc2ccc(-c3ncn(-c4ccc(S(F)(F)(F)(F)F)cc4)n3)cc2F)c1 [Compound J422] |  |  | A (50-100) | A (50-100) |
| COC(C)c1ccc(C)cc1N1C(=O)CS/C1=N\C(=O)Nc1ccc(-c2ncn(-c3ccc(S(F)(F)(F)(F)F)cc3)n2)cc1F (centres unmarked) [Compound J423] |  |  | A (50-100) | A (50-100) |
| Cc1ccc(COCC(F)(F)F)c(N2C(=O)CS/C2=N\C(=O)Nc2ccc(-c3ncn(-c4ccc(CC#N)cc4)n3)cc2F)c1 [Compound J425, (Z)-1-(4-(1-(4-(Cyanomethyl)phenyl)-1H-1,2,4-triazol-3-yl)-2-fluorophenyl)-3-(3-(5-methyl-2-((2,2,2-trifluoroethoxy)methyl)phenyl)-4-oxothiazolidin-2-ylidene)urea] | 50 to 100 | 50 to 100 |  |  |
| COC(C)c1ccc(C)cc1N1C(=O)CS/C1=N\C(=O)Nc1ccc(-c2noc(-c3ccc(OC(F)(F)F)cc3)n2)cc1F (centres unmarked) [Compound J426, (Z)-1-(2-Fluoro-4-(5-(4-(trifluoromethoxy)phenyl)-1,2,4-oxadiazol-3-yl)phenyl)-3-(3-(2-(1-methoxyethyl)-5-methylphenyl)-4-oxothiazolidin-2-ylidene)urea] | 50 to 100 | 50 to 100 |  |  |
| Cc1ccc(COCC(F)(F)F)c(N2C(=O)CS/C2=N\C(=O)Nc2ccc(-c3nc(-c4ccc(OC(F)(F)F)cc4)no3)cc2F)c1 [Compound J427, (Z)-1-(2-Fluoro-4-(3-(4-(trifluoromethoxy)phenyl)-1,2,4-oxadiazol-5-yl)phenyl)-3-(3-(5-methyl-2-((2,2,2-trifluoroethoxy)methyl)phenyl)-4-oxothiazolidin-2-ylidene)urea] | 50 to 100 | 50 to 100 |  |  |
| COC(c1ccc(C)cc1N1C(=O)CS/C1=N\C(=O)Nc1ccc(-c2nc(-c3ccc(OC(F)(F)F)cc3)no2)cc1F)C(F)(F)F (centres unmarked) [Compound J428, (Z)-1-(2-Fluoro-4-(3-(4-(trifluoromethoxy)phenyl)-1,2,4-oxadiazol-5-yl)phenyl)-3-(3-(5-methyl-2-(2,2,2-trifluoro-1-methoxyethyl)phenyl)-4-oxothiazolidin-2-ylidene)urea] | 50 to 100 | 50 to 100 |  |  |
| COC(C)c1ccc(C)cc1N1C(=O)CS/C1=N\C(=O)Nc1ccc(-c2nnc(-c3ccc(OC(F)(F)F)cc3)o2)cc1F (centres unmarked) [Compound J429, (Z)-1-(2-Fluoro-4-(5-(4-(trifluoromethoxy)phenyl)-1,3,4-oxadiazol-2-yl)phenyl)-3-(3-(2-(1-methoxyethyl)-5-methylphenyl)-4-oxothiazolidin-2-ylidene)urea] | 50 to 100 | 50 to 100 |  |  |
| Cc1ccc(COCC(F)(F)F)c(N2C(=O)CS/C2=N\C(=O)Nc2ccc(-c3nnc(-c4ccc(OC(F)(F)F)cc4)o3)cc2F)c1 [Compound J430, (Z)-1-(2-Fluoro-4-(5-(4-(trifluoromethoxy)phenyl)-1,3,4-oxadiazol-2-yl)phenyl)-3-(3-(5-methyl-2-((2,2,2-trifluoroethoxy)methyl)phenyl)-4-oxothiazolidin-2-ylidene)urea] | 50 to 100 | 50 to 100 |  |  |
| CC(C)c1ccc(N(C)C)cc1N1C(=O)CS/C1=N\C(=O)Nc1ccc(-c2nnc(-c3ccc(OC(F)(F)F)cc3)o2)cc1F [Compound J431, (Z)-1-(3-(5-(Dimethylamino)-2-isopropylphenyl)-4-oxothiazolidin-2-ylidene)-3-(2-fluoro-4-(5-(4-(trifluoromethoxy)phenyl)-1,3,4-oxadiazol-2-yl)phenyl)urea] | 50 to 100 | 50 to 100 |  |  |
| CC(C)c1cc(F)c(N(C)C)cc1N1C(=O)CS/C1=N\C(=O)Nc1ccc(-c2nnc(-c3ccc(OC(F)(F)F)cc3)o2)cc1F [Compound J432, (Z)-1-(3-(5-(Dimethylamino)-4-fluoro-2-isopropylphenyl)-4-oxothiazolidin-2-ylidene)-3-(2-fluoro-4-(5-(4-(trifluoromethoxy)phenyl)-1,3,4-oxadiazol-2-yl)phenyl)urea] | 50 to 100 | 50 to 100 |  |  |
| COC(c1ccc(C)cc1N1C(=O)CS/C1=N\C(=O)Nc1ccc(-c2nnc(-c3ccc(OC(F)(F)F)cc3)o2)cc1F)C(F)(F)F (centres unmarked) [Compound J433, (Z)-1-(2-Fluoro-4-(5-(4-(trifluoromethoxy)phenyl)-1,3,4-oxadiazol-2-yl)phenyl)-3-(3-(5-methyl-2-(2,2,2-trifluoro-1-methoxyethyl)phenyl)-4-oxothiazolidin-2-ylidene)urea] | 50 to 100 | 50 to 100 |  |  |
| COC(C)c1ccc(C)cc1N1C(=O)CS/C1=N\C(=O)Nc1ccc(-c2nc(-c3ccc(OC(F)(F)F)cc3)no2)cc1F (centres unmarked) [Compound J434, (Z)-1-(2-Fluoro-4-(3-(4-(trifluoromethoxy)phenyl)-1,2,4-oxadiazol-5-yl)phenyl)-3-(3-(2-(1-methoxyethyl)-5-methylphenyl)-4-oxothiazolidin-2-ylidene)urea] | 50 to 100 | 50 to 100 |  |  |
| CC(C)c1ccc(N(C)C)cc1N1C(=O)CS/C1=N\C(=O)Nc1ccc(-c2nc(-c3ccc(OC(F)(F)F)cc3)no2)cc1F [Compound J435, (Z)-1-(3-(5-(dimethylamino)-2-isopropylphenyl)-4-oxothiazolidin-2-ylidene)-3-(2-fluoro-4-(3-(4-(trifluoromethoxy)phenyl)-1,2,4-oxadiazol-5-yl)phenyl)urea] | 50 to 100 | 50 to 100 |  |  |
| Cc1ccc(COCC(F)(F)Cl)c(N2C(=O)CS/C2=N\C(=O)Nc2ccc(-c3ncn(-c4ccc(OC(F)(F)F)cc4)n3)cc2C)c1 [Compound J436] |  |  | A (50-100) | A (50-100) |
| Cc1ccc(COCC(F)(F)Cl)c(N2C(=O)CS/C2=N\C(=O)Nc2ccc(-c3ncn(-c4ccc(OC(F)(F)F)cc4)n3)cc2F)c1 [Compound J437] |  |  | A (50-100) | A (50-100) |
| Cc1ccc(N2C(=O)CS/C2=N\C(=O)Nc2ccc(-c3ncn(-c4ccc(OC(F)(F)F)cc4)n3)cc2F)c(COCC(F)(F)F)c1 [Compound J438] |  |  | A (50-100) | A (50-100) |
| Cc1ccc(Cc2cccc(C(F)(F)F)c2)c(N2C(=O)CS/C2=N\C(=O)Nc2ccc(-c3ncn(-c4ccc(OC(F)(F)F)cc4)n3)cc2C)c1 [Compound J440, (Z)-1-(3-(5-Methyl-2-(3-(trifluoromethyl)benzyl)phenyl)-4-oxothiazolidin-2-ylidene)-3-(2-methyl-4-(1-(4-(trifluoromethoxy)phenyl)-1H-1,2,4-triazol-3-yl)phenyl)urea] | 0 to 50 | 50 to 100 |  |  |
| Cc1ccc(OCCC(F)(F)F)c(N2C(=O)CS/C2=N\C(=O)Nc2ccc(-n3cnc(-c4ccc(OC(F)(F)F)cc4)n3)cc2C)c1 [Compound J441, (Z)-1-(3-(5-Methyl-2-(3,3,3-trifluoropropoxy)phenyl)-4-oxothiazolidin-2-ylidene)-3-(2-methyl-4-(3-(4-(trifluoromethoxy)phenyl)-1H-1,2,4-triazol-1-yl)phenyl)urea] | 50 to 100 | 50 to 100 |  |  |
